{
  "source": "paper PMC6149971",
  "about": "“In Vivo and In Vitro Activities and ADME-Tox Profile of a Quinolizidine-Modified 4-Aminoquinoline: A Potent Anti-P. falciparum and Anti-P. vivax Blood-Stage Antimalarial” (Molecules : A Journal of Synthetic Chemistry and Natural …, 2017)",
  "key": {"P. vivax field isolates": {"tested_on": "P. vivax field isolates", "test": "In vitro assay against P. vivax field isolates", "format": "cell-based", "settings": "read-out: P. vivax IC50, field isolates", "description": "Ten P. vivax isolates were collected from June to July 2010 from malaria patients attending the Shoklo Malaria Research Unit (SMRU) clinics, Mae Sot region of the Tak Province in north-western Thailand under the ethical guidelines in the approved protocol OXTREC 027-05 (Centre for Clinical Vaccinology and Tropical Medicine, University of Oxford, Oxford, UK). These samples were collected from patients with no prior antimalarial therapy and with microscopically confirmed P. vivax. After written consent, blood samples were collected by venepuncture in 5 mL volume lithium heparinized tubes, which were then transported to the laboratory at SMRU within 5 h of collection. The ten isolates were chosen for testing because the majority (>80%) of the parasites were at the mid trophozoite stage (around 20 h post invasion) and no schizonts were detected."}, "[1]": {"tested_on": "P. falciparum FCR3 (CQ-R)", "test": "In vitro chemosensitivity assay (pLDH), FCR3 strain", "format": "cell-based", "settings": "Plasmodium falciparum, FCR3, 72 h, read-out: P. falciparum IC50, FCR3"}, "[2]": {"test": "Maximum tolerated dose in CD1 mice", "settings": "CD1, mouse, in vivo, ip"}, "[3]": {"tested_on": "P. falciparum FCR1 (CQ-R)", "test": "In vitro chemosensitivity assay (pLDH), FCR1 strain", "format": "cell-based", "settings": "Plasmodium falciparum, 72 h, read-out: P. falciparum IC50, FCR1"}, "P. falciparum D10 (CQ-S)": {"tested_on": "P. falciparum D10 (CQ-S)", "design": "method as in PMID 22901673", "settings": "72 h incubation, pLDH method, mean of 3 experiments; data already published; cited from earlier work"}, "P. falciparum W-2 (CQ-R)": {"tested_on": "P. falciparum W-2 (CQ-R)", "design": "method as in PMID 22901673", "settings": "72 h incubation, pLDH method, mean of 3 experiments; data already published; cited from earlier work"}, "[4]": {"tested_on": "P. falciparum TM91C235 (multidrug-resistant)", "test": "In vitro chemosensitivity assay (pLDH), TM91C235 strain", "format": "cell-based", "settings": "Plasmodium falciparum, 72 h, read-out: P. falciparum IC50, TM91C235"}, "[5]": {"design": "method as in PMID 19651905", "settings": "pH 7.4; cited from earlier work"}, "[6]": {"tested_on": "chloroquine-sensitive and resistant P. falciparum strains", "test": "In vitro antimalarial activity, range over the strain panel", "format": "cell-based", "settings": "D10, W-2, FCR1, FCR3, TM91C235; range over strains and forms; read-out: IC50 range against CQ-S and CQ-R P. falciparum strains"}, "[7]": {"test": "Microsome stability and metabolism studies, human", "format": "in vitro ADME", "design": "key: +: Metabolic Products Detected In Vitro and In Vivo; ND: Not detectable", "settings": "(−)-AM1 1 μM, at 30 min", "experimental": "(§1) Samples from the metabolic stability and metabolism studies were analyzed under the following conditions: UPLC interfaced with a Premiere XE triple Quadrupole Waters for stability studies, and Bruker Daltonics Ion Trap HCT Ultra for metabolic studies. A gradient from 2% to 100% (Water, MeOH, 5 mM Ammonium Acetate) over 2 min (stability) or 12 min (metabolism) in a C18 BEH (dimensions 1 by 50 mm for stability and 2.1 by 100 mm for metabolism, 1.7 µm column, 45 °C temperature, flow rate 0.5 mL/min) was used. […]\nFor stability and metabolism studies, test compounds were dissolved in DMSO, diluted at the final concentration of 1 µM, and pre-incubated in duplicate for 10 min at 37 °C in potassium phosphate buffer, pH 7.4, 3 mM MgCl2, with rat, mouse, and human hepatic microsomes (Xenotech Europe, Pfungstadt, Germany) at the final concentration of 0.5 mg/mL. […] Samples were then centrifuged and the supernatants analysed and quantified by LC-MS/MS. […]\n(§2) The percentage of the area of test compounds remaining after 30 min incubation was calculated in respect to the area of compounds at time = 0 min. […] Samples were re-analyzed by acquiring the daughter scan of the potential metabolites found during the full scan acquisition."}, "[8]": {"test": "Microsome stability and metabolism studies, rat", "format": "in vitro ADME", "design": "key: +: Metabolic Products Detected In Vitro and In Vivo; ND: Not detectable", "settings": "(−)-AM1 1 μM, at 30 min", "experimental": "(§3) Samples from the metabolic stability and metabolism studies were analyzed under the following conditions: UPLC interfaced with a Premiere XE triple Quadrupole Waters for stability studies, and Bruker Daltonics Ion Trap HCT Ultra for metabolic studies. A gradient from 2% to 100% (Water, MeOH, 5 mM Ammonium Acetate) over 2 min (stability) or 12 min (metabolism) in a C18 BEH (dimensions 1 by 50 mm for stability and 2.1 by 100 mm for metabolism, 1.7 µm column, 45 °C temperature, flow rate 0.5 mL/min) was used. For stability studies, the detection was performed in MRM (ESI positive, Q1/Q3 330.16/152.00, Cone Voltage 45 V; Extractor 5 V; Capillary 3.4 kV), while for metabolism studies, analysis was performed in Auto MS/MS mode (ESI positive; Capillary 109 V; Dry Temp 350 °C; Nebulizer 30 psi; Dry gas 10 L/min; HV capillary 500 V; Mass Accu time 500 µs; Mass range MS scan 100–600 amu, MS/MS 50–450 amu).\n(§4) For stability and metabolism studies, test compounds were dissolved in DMSO, diluted at the final concentration of 1 µM, and pre-incubated in duplicate for 10 min at 37 °C in potassium phosphate buffer, pH 7.4, 3 mM MgCl2, with rat, mouse, and human hepatic microsomes (Xenotech Europe, Pfungstadt, Germany) at the final concentration of 0.5 mg/mL. The reaction was then started by adding the cofactor mixture of NADP, Glc6P, and G6P-DH, in the presence of UDPGA 1 mM in human microsomes to promote glucuronide formation. Acetonitrile (with verapamil as internal standard) was added to the samples at the times time 0 and 30 min to stop the reaction. Samples were then centrifuged and the supernatants analysed and quantified by LC-MS/MS. Reference compounds of known metabolic stability, 7-ethoxycoumarin (7-EC) and propranolol, were used as controls.\nas §2"}, "[9]": {"test": "Metabolites in mouse plasma after oral treatment", "format": "in vivo", "design": "key: +: Metabolic Products Detected In Vitro and In Vivo; ND: Not detectable", "settings": "after 50 mg/kg (−)-AM1 oral gavage, at 120 min", "experimental": "A representative chromatogram in the mouse and the MS spectra are shown in Figure S1 (Supplementary Materials), while the proposed structures of metabolites in all the species, together with the retention times, are shown in Table 3. In the same table, the metabolites found in mouse plasma after 50 mg/kg oral treatment are included. The retention times and [M + H]^+ of the metabolites are the same for all three species.\nThe parent [M + H]^+ = 330 and the metabolites [M + H]^+ = 346 and [M + H]^+ = 344 were also detected in the mouse plasma samples collected after oral treatment of CD1 mice with 50 mg/kg of (−)-AM1 (Figure S4).\nas §1"}, "[10]": {"test": "Microsome stability and metabolism studies, mouse", "format": "in vitro ADME", "design": "key: +: Metabolic Products Detected In Vitro and In Vivo; ND: Not detectable", "settings": "(−)-AM1 1 μM, at 30 min", "experimental": "as §3, §4, §2"}},
  "note": "Read-outs that look alike come from different tables or passages of the source.",
  "data": [
    {"smiles": "CCN(CC)CCCC(C)Nc1ccnc2cc(Cl)ccc12", "note": "(centres unmarked) [CQ, chloroquine, reference compound]", "values": [
      {"measurement": "IC50", "setting": "P. vivax field isolates; Plasmodium vivax", "result": 86.7, "unit": "nM"},
      {"measurement": "IC50", "setting": "[1]", "result": 113, "unit": "nM"},
      {"measurement": "MTD", "setting": "[2]", "result": 50, "unit": "mg/kg"},
      {"measurement": "IC50", "setting": "[3]", "result": 182, "unit": "nM"},
      {"measurement": "IC50", "setting": "P. falciparum D10 (CQ-S)", "result": 23.7, "unit": "nM"},
      {"measurement": "IC50", "setting": "P. falciparum W-2 (CQ-R)", "result": 438, "unit": "nM"},
      {"measurement": "IC50", "setting": "[4]", "result": 199, "unit": "nM"}
    ]},
    {"smiles": "Clc1ccc2c(NCC3CCCN4CCCCC34)ccnc2c1", "note": "(centres unmarked) [AM1, 7-chloro-4-(N-lupinyl)aminoquinoline]", "values": [
      {"measurement": "IC50", "setting": "P. vivax field isolates; 10 field isolates from the Thai–Burmese border, mean", "result": 29, "unit": "nM"},
      {"measurement": "LogD7.4", "setting": "[5]", "result": 2.26},
      {"measurement": "IC50", "setting": "[6]", "result": "16 to 53", "unit": "nM"}
    ]},
    {"smiles": "[O-][NH+](CC1CCCN2CCCCC12)c1ccnc2cc(Cl)ccc12", "note": "(centres unmarked) [C00003]", "values": [
      {"measurement": "Metabolic products detected, in vitro microsomes, human", "setting": "[7]", "result": "+"},
      {"measurement": "Metabolic products detected, in vitro microsomes, rat", "setting": "[8]", "result": "+"},
      {"measurement": "Metabolic products detected, in vivo plasma levels, mouse", "setting": "[9]", "result": "+"},
      {"measurement": "Metabolic products detected, in vitro microsomes, mouse", "setting": "[10]", "result": "+"}
    ]}
  ]
}
